Values quoted from earlier work as cited in patent publication US12350279B2, “Nasal rinse compositions and methods” (Campbell Holding Company LLC, priority 2022, dated 2025).

Columns and labels:
[1] = animal models
[2] = system: animal models of chronic asthma
[3] = system: allergic asthma animal model

## C=C(C)[C@@H]1CCC(C)=C[C@H]1c1c(O)cc(CCCCC)cc1O [CBD, Cannabidiol]
[1]
  time to absorption after intranasal application: ≤ 10 min
[2]
  effect on cytokines: reduce relevant cytokines
[3]
  effect on inflammatory and remodeling process, airway hyperreactivity: reduced the inflammatory and remodeling process with decreased airway hyperreactivity
